Here are results for eleven compounds from paper PMC9516332 (Frontiers in Oncology, 2022).

SMILES strings stand for the structures. Where two headings read alike, the source gives them in different places.

Common to all, as to assay: Kinase panel profiling at 1 µmol/L (MSA or IMAP), percentage inhibition
Type in all cases: biochemical

Test [1] deals with panel of 255 wild-type kinases (Homo sapiens, UniProt P21802). Particulars: read-out: %-inhibition at 1 µmol/L, FGFR2.
Test [2] concerns the target panel of 255 wild-type kinases (Homo sapiens, UniProt P53355). Particulars: read-out: %-inhibition at 1 µmol/L, DAPK1.
Test [3] addresses panel of 255 wild-type kinases (Homo sapiens, UniProt Q00526). Particulars: read-out: %-inhibition CDK3/CycE1.
Test [4] addresses panel of 255 wild-type kinases (Homo sapiens, UniProt Q00535). Particulars: read-out: %-inhibition CDK5/p25.
Test [5] concerns the target T1, panel of 255 wild-type kinases (Homo sapiens, UniProt Q16566).
T1 sequence (Q16566 1-473): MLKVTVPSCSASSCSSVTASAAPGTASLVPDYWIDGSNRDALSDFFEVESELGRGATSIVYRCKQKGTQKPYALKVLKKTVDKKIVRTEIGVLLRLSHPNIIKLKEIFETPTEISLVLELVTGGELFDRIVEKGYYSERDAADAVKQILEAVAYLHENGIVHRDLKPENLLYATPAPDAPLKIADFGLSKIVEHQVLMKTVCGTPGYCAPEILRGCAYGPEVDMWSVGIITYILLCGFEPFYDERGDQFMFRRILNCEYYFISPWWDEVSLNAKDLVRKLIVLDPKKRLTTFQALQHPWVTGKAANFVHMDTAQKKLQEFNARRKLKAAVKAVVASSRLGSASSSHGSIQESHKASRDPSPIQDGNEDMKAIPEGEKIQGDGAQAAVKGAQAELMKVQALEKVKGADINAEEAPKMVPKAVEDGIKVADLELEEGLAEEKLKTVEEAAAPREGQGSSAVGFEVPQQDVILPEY
Particulars: read-out: %-inhibition CaMK4.

The target in test [6] is panel of 255 wild-type kinases (Homo sapiens, UniProt Q86V86). Particulars: read-out: %-inhibition at 1 µmol/L, PIM3.
In test [7] the target is T2, panel of 255 wild-type kinases (Homo sapiens, UniProt Q8NE63).
T2 sequence (Q8NE63 1-616): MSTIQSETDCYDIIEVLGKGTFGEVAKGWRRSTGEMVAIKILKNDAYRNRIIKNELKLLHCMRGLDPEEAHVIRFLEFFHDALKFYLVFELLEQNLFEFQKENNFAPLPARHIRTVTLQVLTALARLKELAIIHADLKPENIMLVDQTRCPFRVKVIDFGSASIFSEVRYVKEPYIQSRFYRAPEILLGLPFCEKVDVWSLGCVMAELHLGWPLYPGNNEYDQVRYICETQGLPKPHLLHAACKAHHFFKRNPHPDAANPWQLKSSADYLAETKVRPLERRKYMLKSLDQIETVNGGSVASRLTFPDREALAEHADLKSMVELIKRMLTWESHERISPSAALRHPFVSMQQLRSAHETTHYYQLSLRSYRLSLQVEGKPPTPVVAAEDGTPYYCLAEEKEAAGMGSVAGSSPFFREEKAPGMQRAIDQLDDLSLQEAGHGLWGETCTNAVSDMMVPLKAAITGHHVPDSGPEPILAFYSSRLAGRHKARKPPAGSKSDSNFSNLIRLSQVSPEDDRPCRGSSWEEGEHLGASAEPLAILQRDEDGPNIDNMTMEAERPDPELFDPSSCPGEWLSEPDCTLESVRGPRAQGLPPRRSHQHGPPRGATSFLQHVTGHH
Particulars: read-out: %-inhibition at 1 µmol/L, HIPK4.

Test [8] has as its target T3, panel of 255 wild-type kinases (Homo sapiens, UniProt Q9UL54).
T3 sequence (Q9UL54 1-1235): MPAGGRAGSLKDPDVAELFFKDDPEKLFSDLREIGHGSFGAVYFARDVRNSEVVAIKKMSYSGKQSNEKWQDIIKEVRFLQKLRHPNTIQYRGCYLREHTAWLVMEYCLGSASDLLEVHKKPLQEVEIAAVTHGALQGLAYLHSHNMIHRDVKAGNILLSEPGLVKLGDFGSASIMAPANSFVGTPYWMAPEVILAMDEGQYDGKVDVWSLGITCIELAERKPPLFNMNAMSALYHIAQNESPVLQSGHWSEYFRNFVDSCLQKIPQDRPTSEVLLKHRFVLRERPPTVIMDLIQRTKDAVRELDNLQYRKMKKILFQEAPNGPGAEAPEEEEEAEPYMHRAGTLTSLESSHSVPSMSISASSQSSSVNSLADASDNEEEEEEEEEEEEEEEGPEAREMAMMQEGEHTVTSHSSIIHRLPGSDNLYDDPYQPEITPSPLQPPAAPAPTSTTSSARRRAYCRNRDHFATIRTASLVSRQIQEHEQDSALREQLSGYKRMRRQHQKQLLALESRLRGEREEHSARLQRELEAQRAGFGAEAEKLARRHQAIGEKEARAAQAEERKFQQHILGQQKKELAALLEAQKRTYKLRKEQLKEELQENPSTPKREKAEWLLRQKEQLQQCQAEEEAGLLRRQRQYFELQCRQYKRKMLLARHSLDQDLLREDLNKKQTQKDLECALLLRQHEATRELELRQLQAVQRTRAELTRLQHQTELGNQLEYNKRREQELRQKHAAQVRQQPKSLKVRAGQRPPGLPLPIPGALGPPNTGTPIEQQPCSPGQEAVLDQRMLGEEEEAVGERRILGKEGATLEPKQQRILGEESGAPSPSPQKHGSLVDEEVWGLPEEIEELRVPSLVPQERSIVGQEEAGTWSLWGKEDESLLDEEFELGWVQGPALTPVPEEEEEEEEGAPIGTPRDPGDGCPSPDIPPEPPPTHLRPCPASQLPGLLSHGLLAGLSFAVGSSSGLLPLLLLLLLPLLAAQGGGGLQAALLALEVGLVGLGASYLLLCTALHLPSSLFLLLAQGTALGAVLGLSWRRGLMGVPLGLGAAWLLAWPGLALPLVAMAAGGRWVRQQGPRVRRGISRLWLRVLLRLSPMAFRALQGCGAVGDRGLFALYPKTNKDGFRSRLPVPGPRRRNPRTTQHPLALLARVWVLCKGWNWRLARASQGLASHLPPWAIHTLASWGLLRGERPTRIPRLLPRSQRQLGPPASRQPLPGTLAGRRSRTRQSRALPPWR
Particulars: read-out: %-inhibition at 1 µmol/L, TAOK2.

Where [9] appears, read: kinase FGFR2, 1 µmol/L single concentration.
[10] abbreviates: kinase DAPK1, 1 µmol/L single concentration.
Setting [11] is: CDK3/CycE1 kinase assay, 1 µmol/L single concentration.
The mark [12] stands for this setting: CDK5/p25 kinase assay, 1 µmol/L single concentration.
Setting [13] is: CaMK4 kinase assay, 1 µmol/L single concentration.
The mark [14] stands for this setting: kinase PIM3, 1 µmol/L single concentration.
Setting [15] is: kinase HIPK4, 1 µmol/L single concentration.
The mark [16] stands for this setting: kinase TAOK2, 1 µmol/L single concentration.

As to `Cn1cc(-c2cc3c(N4CCN(c5ncc([C@@](C)(N)c6ccc(F)cc6)cn5)CC4)ncnn3c2)cn1` [avapritinib], the inhibition at 1 µM in test [1] (setting [9]) was 62%; in test [2] (setting [10]) it was 0.0958%; in test [3] (setting [11]) it was -2.7%; in test [4] (setting [12]), 11%; in test [5] (setting [13]), -0.588%; in test [6] (setting [14]), 9%. Besides, the results for the inhibition at 1 µM in test [7] (setting [15]) and in test [8] (setting [16]) were 46% and 6%, respectively.

Regarding `C[C@H](Nc1ncnc2nc[nH]c12)c1cc2cccc(Cl)c2c(=O)n1-c1ccccc1` [duvelisib], the inhibition at 1 µM in test [1] (setting [9]) is 5%; in test [2] (setting [10]), -3.23%; in test [3] (setting [11]) it was -0.613%; in test [4] (setting [12]) it was -11%; in test [5] (setting [13]), -3%; in test [6] (setting [14]), -7%. Besides, the inhibition at 1 µM in test [7] (setting [15]) was 5%; in test [8] (setting [16]), -0.0517%.

Take `COc1cc2ncnc(Nc3ccc(F)c(Cl)c3)c2cc1NC(=O)/C=C/CN1CCCCC1` [dacomitinib]: the inhibition at 1 µM in test [1] (setting [9]) was 16%; in test [2] (setting [10]) it was -7%; in test [3] (setting [11]), -1.66%; in test [4] (setting [12]) it was -29%; in test [5] (setting [13]), 2.44%; in test [6] (setting [14]) it was 23%. In addition, the inhibition at 1 µM in test [7] (setting [15]) is 85%; in test [8] (setting [16]), 1%.

As to `CCN1CCN(c2ccc(Nc3cc(N(C)C(=O)Nc4c(Cl)c(OC)cc(OC)c4Cl)ncn3)cc2)CC1` [infigratinib], the inhibition at 1 µM is -3% in test [2] (setting [10]); -10% in test [3] (setting [11]); -17% in test [4] (setting [12]); 2.47% in test [5] (setting [13]); 0.254% in test [6] (setting [14]); 6% in test [7] (setting [15]). Besides, in test [8] (setting [16]), the inhibition at 1 µM is 91%.

Consider `Cn1cnc2c(F)c(Nc3ccc(Br)cc3Cl)c(C(=O)NOCCO)cc21` [selumetinib], for which the inhibition at 1 µM in test [1] (setting [9]) was 1.1%; in test [2] (setting [10]) it was 2.59%; in test [3] (setting [11]), -9%; in test [4] (setting [12]) it was -11%; in test [5] (setting [13]), -2%; in test [6] (setting [14]), -0.0221%. Further, the inhibition at 1 µM in test [7] (setting [15]) turned out to be 10%; in test [8] (setting [16]), 3.77%.

Consider `CNC(=O)c1ccc(-c2cnc3ncc(Cc4ccc5ncccc5c4)n3n2)cc1F` [capmatinib], for which the inhibition at 1 µM in test [1] was 7%; in test [2], -2.82%; in test [3], -14%; in test [4], -20%; in test [5], -2.8%; in test [6] it was 1.78%. Moreover, the inhibition at 1 µM in test [7] is 3.67%; in test [8], 3%.

For the compound `COC(=O)N[C@@H](C)CNc1nccc(-c2cn(C(C)C)nc2-c2cc(Cl)cc(NS(C)(=O)=O)c2F)n1` [encorafenib], the inhibition at 1 µM is 4% in test [1] (setting [9]); -1% in test [2] (setting [10]); -2% in test [3] (setting [11]); -17% in test [4] (setting [12]); 4.35% in test [5] (setting [13]); 10% in test [6] (setting [14]). Also, the values for the inhibition at 1 µM in test [7] (setting [15]) and in test [8] (setting [16]) were 59% and -0.719%, respectively.

Take `Cc1cc(Nc2ncnc3ccc(NC4=NC(C)(C)CO4)cc23)ccc1Oc1ccn2ncnc2c1` [tucatinib]: the inhibition at 1 µM in test [1] (setting [9]) was 6%; in test [2] (setting [10]), 1.6%; in test [3] (setting [11]), -3.48%; in test [4] (setting [12]), -5%; in test [5] (setting [13]), 0.435%; in test [6] (setting [14]), -1.3%. Moreover, the inhibition at 1 µM in test [7] (setting [15]) turned out to be 21%; in test [8] (setting [16]), 5%.

Turning to `C=CC(=O)N1CCC([C@@H]2CCNc3c(C(N)=O)c(-c4ccc(Oc5ccccc5)cc4)nn32)CC1` [zanubrutinib], the inhibition at 1 µM in test [1] (setting [9]) is 2.54%; in test [2] (setting [10]) it was -2%; in test [3] (setting [11]) it was 2.65%; in test [4] (setting [12]) it was -17%; in test [5] (setting [13]), 0.733%; in test [6] (setting [14]) it was -8%. For the same compound, the inhibition at 1 µM came to 7% in test [7] (setting [15]) and 4% in test [8] (setting [16]).

In the case of `CCN1C(=O)N(c2c(F)c(OC)cc(OC)c2F)Cc2cnc3[nH]c(CN4CCOCC4)cc3c21` [pemigatinib], the inhibition at 1 µM in test [2] (setting [10]) is -4.25%; in test [3] (setting [11]), 11%; in test [4] (setting [12]) it was -12%; in test [5] (setting [13]), 1.2%; in test [6] (setting [14]), -8%; in test [7] (setting [15]), 28%. In addition, the inhibition at 1 µM in test [8] (setting [16]) worked out at 48%.

With `CN1CCN(c2ccc(C(=O)Nc3n[nH]c4ccc(Cc5cc(F)cc(F)c5)cc34)c(NC3CCOCC3)c2)CC1` [entrectinib], the inhibition at 1 µM in test [1] (setting [9]) was 97%; in test [2] (setting [10]), 16%; in test [3] (setting [11]) it was 5.63%; in test [5] (setting [13]) it was 1.07%; in test [6] (setting [14]) it was -10%; in test [7] (setting [15]), 14%. The inhibition at 1 µM in test [8] (setting [16]) was 3%.
